We go through two compounds from patent US10815196B2, “(S)-CSA salt of S-ketamine, (R)-CSA salt of S-ketamine and processes for the preparation of S-ketamine” (Janssen Pharmaceutica NV, priority 2015, dated 2020).

The structures appear in SMILES notation.

Common to all, as to assay type: physicochemical
Data set [1] in a line: Storage of amorphous anhydrous form at ambient conditions. As for the experimental part: . The amorphous anhydrous form of (S)-CSA salt of S-ketamine was also obtained (in a mixture with the monohdrate form) by slurrying the crystalline monohydrate form of (S)-CSA salt of S-ketamine in 2-methyl THF or isopropyl acetate at about 80° C. for about 4 days.
Data set [2] can be described thus: TG-FTIR measurement. As to conditions: 25° C. to 300° C., 10K/min, nitrogen. As for the experimental part:
ThermoGravimetric-Fourier Transform InfraRed (TG-FTIR) measurements, where carried out were measures using a Netzsche Thermo-Microbalance TG209 with Bruker FT-IR Spectrometer Vector 22, with aluminum crucible with microhoel, nitrogen atmosphere and scanning form 25° C. to 300° C. at a heating rate of 10K/min.

Data set [3] is described as follows: Approximate solubility by stepwise dilution of a suspension. As to conditions: thermodynamic from solid. Here is the method:
The approximate solubility of the monohydrate crystalline form of the (S)-CSA salt of S-ketamine was measured by stepwise dilution of a suspension of about 10 mg of the sample in 0.05 mL solvent. Table 4 below lists the approximate solubility, denoted “S”. If a sample was not dissolved by addition of a total of 10-12 mL of solvent, the solubility is indicated as <1 mg/mL in the Table 4, below.

Data set [4] in a line: Solubility in select solvents after 24 hours, filtrate analyzed by HPLC. As for the experimental part: Additionally, the solubility of the monohydrate crystalline form of the (S)-CSA salt of S-ketamine in select solvents was determined as follows: 21 g of (S)-CSA salt of S- ketamine was dissolved in 100 mL of solvent (as listed in Table 5 below). After 24 hours, the solutions were analyzed visually. If the compound was completely dissolved, solubility was above 20 g/100 mL. If the compound was not completely dissolved, any remaining precipitate was filtered off, the filtrate was diluted 400-fold with HPLC dilution solvent (or acetonitrile/HPLC dilution solvent) and analyzed by HPLC, with results as listed in Table 5, below.

Data set [5] in a line: Dynamic Vapor Sorption (DVS) measurement. As for the experimental part: Dynamic Vapor Sorption (DVS) measurements (where completed) were measured using a Projekt Messtechnik Sorptions Prufsystem SPS 11 or Surface Measurement Systems DVS-1 scanning (cycling relative humidity and hodling the sample at a set relative humidity) as follow: (a) holding sample at 50% RH for 2 hours; (b) 50% RH to 0% RH (5%/h); holding at 0% RH for 5 hours; (c) 0% RH to 95% RH (5%/h); holding at 95% RH for 5 hours; and (d) 95% RH to 50% RH (5%/h); holding at 50% RH for 2 hours.

For the compound `CC1(C)[C@@H]2CC[C@@]1(CS(=O)(=O)O)C(=O)C2.CN[C@]1(c2ccccc2Cl)CCCCC1=O`, in data set [1] (amorphous, anhydrous form), the Hygroscopicity result was “hygroscopic”. Moreover, the “Form stability on storage” value in data set [1] (storage at ambient conditions) is “rapidly converts to the monohydrate form”.
The solubility is the concentration that dissolves in the medium under given conditions. One may read the solubility (thermodynamic) as solubility found after equilibrating the solid with the medium. Take `CN[C@]1(c2ccccc2Cl)CCCCC1=O` [(S)-2-(2-chlorophenyl)-2-(methylammonium)cyclohexanone(+)-camphorsulfonate monohydrate]: in data set [2], the Chemical decomposition temperature entry was “above 230 °C”. Besides, the solubility in data set [3] (10:1 acetone:water, organic solvent or mixture, solvent: 10:1 aectobne:water) was 20 to 24 mg/mL; in data set [3] (aqueous with cosolvent or surfactant or cyclodextrin, solvent: 1:1 2-propanol:water), 93 to 189 mg/mL; in data set [3] (aqueous with cosolvent or surfactant or cyclodextrin, solvent: 1:1 acetone:water) it was 58 to 77 mg/mL; in data set [3] (organic solvent or mixture, solvent: 1,4-dioxane) it was 5 to 6 mg/mL; in data set [3] (organic solvent or mixture, solvent: 1:1 2-propanol:isopropyl acetate), 10 to 11 mg/mL; in data set [3] (organic solvent or mixture, solvent: 2-methyl THF saturated with water), 6 to 8 mg/mL. In addition, the solubility was 5 to 7 mg/mL in data set [3] (organic solvent or mixture, solvent: 2-methyl-THF); 22 to 25 mg/mL in data set [3] (organic solvent or mixture, solvent: 2-propanol); 24 to 28 mg/mL in data set [3] (organic solvent or mixture, solvent: 10:1 2-propanol:water); 67 to 101 mg/mL in data set [3] (organic solvent or mixture, solvent: DCM); 91 to 185 mg/mL in data set [3] (organic solvent or mixture, solvent: DMF); 106 to 212 mg/mL in data set [3] (organic solvent or mixture, solvent: DMSO). Also, the solubility in data set [3] (organic solvent or mixture, solvent: TBME) is less than 1 mg/mL; in data set [3] (organic solvent or mixture, solvent: THF), 5 to 7 mg/mL; in data set [3] (organic solvent or mixture, solvent: acetone) it was 5 to 6 mg/mL; in data set [3] (organic solvent or mixture, solvent: acetonitrile), 22 to 24 mg/mL; in data set [3] (organic solvent or mixture, solvent: anisole) it was less than 1 mg/mL; in data set [3] (organic solvent or mixture, solvent: ethanol), 67 to 100 mg/mL. Also, the solubility in data set [3] (organic solvent or mixture, solvent: ethyl acetate) is less than 1 mg/mL; in data set [3] (organic solvent or mixture, solvent: heptane) it was less than 1 mg/mL; in data set [3] (organic solvent or mixture, solvent: isopropyl acetate), less than 1 mg/mL; in data set [3] (organic solvent or mixture, solvent: methanol) it was more than 226 mg/mL; in data set [3] (organic solvent or mixture, solvent: toluene) it was less than 1 mg/mL; in data set [3] (solvent: water), 20 to 24 mg/mL. For the same compound, the “Solubility at 23.6° C.” value in data set [4] (solvent: 2-propanol) is 7.275 g/100 mL; in data set [4] (solvent: N,N-dimethylacetamide), 18.200 g/100 mL; in data set [4] (solvent: N,N-dimethylformamide), 18.267 g/100 mL; in data set [4] (solvent: acetic acid), 18.209 g/100 mL; in data set [4] (solvent: acetone (2-propanone)), 0.578 g/100 mL; in data set [4] (solvent: dichloromethane/methanol (50/50 v/v)) it was 18.589 g/100 mL. In addition, the figures for the “Solubility at 23.6° C.” value in data set [4] (solvent: ethanol) and in data set [4] (solvent: methanol) were 18.297 g/100 mL and 18.457 g/100 mL, respectively. For the same compound, in data set [4] (thermodynamic from solid, solvent: demineralized water, 23.6° C.), the thermodynamic solubility at 24 h amounted to 53.4 mg/mL. In addition, in data set [5] (cycling 0% RH to 95% RH), the Hygroscopicity entry is reported as “no hygroscopicity”. In addition, in data set [5] (elevated relative humidity), the “Physical stability at elevated relative humidity” value is reported as “physical stability”.
